This is an account of results in US4370335A, “Antisecretory 4-diphenylmethyl-1-[(oxoalkyl)imino]methyl-piperidines and their derivatives” (McNeilab, Inc., priority 1982, dated 1983).

Counter-ions that a name gives are not always drawn.

The test system of the assay is gastric acid secretion. In words: Acute Gastric Fistula, Rat: inhibition of gastric acid secretion (Total Acid Output). It is filed as in vivo, Female Sprague-Dawley rats. As to conditions: po, 1 h, one hour prior to surgery, dose for average 50% inhibition in Total Acid Output versus controls, collection at one hour. The protocol:
The compounds of the invention are useful for inhibition of gastric acid secretion as measured by the following test. Female Sprague-Dawley rats are fasted twenty-four hours before testing and are given water ad libidum while being kept in individual cages. On the day of testing, the rats are weighed and are selected so that the rats in each test weigh within a range ±20 grams.
Surgery is carried out under light ether anesthesia. As soon as the rat is anesthetized its teeth are removed and a mid-line incision is made on the abdomen about 11/2 inches in length and the stomach and duodenum are exposed. If at this point the stomach is filled with food or fecal material, the rat is discarded. If the condition of the stomach is acceptable, a purse string stitch is placed on the fundic portion of the stomach with a suture, taking care not to pierce any blood vessels in the area. A small nick is then made into the stomach in the center of the purse string, and a cannula, consisting of a small vinyl tube with a flange on one end, is put into the stomach, and the purse string stitch is closed tightly around the flange. The test compound is administered either intraduodenally (i.d.) immediately after surgery or orally (p.o.) one hour prior to surgery at doses generally ranging from about 0.25 to about 160 mg/kg in a volume of 0.5 ml/100 grams rat. Control rats receive the test vehicle, 0.5% aqueous methyl cellulose.
After the surgery and (in the case of i.d. administration) after administration of the test compound, the abdominal wall and skin are closed simultaneously with three or four 18 mm wound clips and a collecting tube is placed on the cannula. Each rat is then placed in a box in which a longitudinal slit has been made to allow the cannula to hang freely and to allow the rat to move about unencumbered. After the rat has been allowed to stabilize for thirty minutes, the collection tube on the cannula is discarded and replaced with a clean tube to receive the gastric juice. Collections are made at one hour. At the end of the study, the cannula is removed and the rat is sacrificed.
The sample of gastric contents collected is drained into a centrifuge tube and centrifuged to pack down the sediment. The volume is read and a 1 ml aliquot of the supernatant is put into a beaker containing 10 ml distilled water and is titrated to pH 7 using 0.01 N sodium hydroxide. Results are determined for Volume, Titratable Acid and Total Acid Output, where Volume equals total ml of gastric juice minus sediment; Titratable Acid (meq/l) equals amount of 0.01 N sodium hydroxide needed to titrate the acid to pH 7; and Total Acid Output equals Titratable Acid times Volume. Results are reported as the ED50 dose (mg/kg required to produce an average of 50% inhibition in Total Acid Output versus controls in all the animals tested for a particular compound) and as percent inhibition.
The results obtained for representative compounds of the invention by the above test for inhibition of gastric secretion are shown in Table I: […]

One may read the ED50 as the dose that gives a 50% effect, or the effect in half of the subjects. A high value points to a need for a large dose. `CC1(CCCCCCN=CN2CCC(C(c3ccccc3)c3ccccc3)CC2)OCCO1` [Example 1, 4-(Diphenylmethyl)-1-{{[6-(2-methyl-1,3-dioxolan-2-yl)hexyl]imino}methyl}piperidine (E)-2-Butenedioate (1:1) Hydrate (10:7)]: it took a dose of 3.14 mg/kg to reach the 50% effect level (ED50).
For `CC(=O)CCCCCCN=CN1CCC(C(c2ccccc2)c2ccccc2)CC1` [Example 2, 4-(Diphenylmethyl)-1-{[(7-oxooctyl)imino]methyl}piperidine (E)-2-Butenedioate (1:1) Hydrate (10:7)], the median effective dose (ED50) came out at 14.7 mg/kg.
The compound `CC(O)CCCCCCN=CN1CCC(C(c2ccccc2)c2ccccc2)CC1` (stereo not drawn) [Example 3, 4-(Diphenylmethyl)-1-{[(7-hydroxyoctyl)imino]methyl}piperidine 2-Naphthalenesulfonate (1:1) Hydrate (4:1)] yielded an ED50 of 78.1 mg/kg.
Take `CC(CCCCCCN=CN1CCC(C(c2ccccc2)c2ccccc2)CC1)=NO` [Example 4, 4-(Diphenylmethyl)-1-{{[7-(hydroxyimino)octyl]imino}methyl}piperidine 2-Naphthalenesulfonate (1:1) Hydrate (5:1)]: it took a dose of 12.3 mg/kg to reach the 50% effect level (ED50).
In turn, `CC(=O)CCCCCCCCN=CN1CCC(C(c2ccccc2)c2ccccc2)CC1` [Example 5] displayed a median effective dose (ED50) of 4.76 mg/kg.
As to `CC(=O)CN=CN1CCC(C(c2ccccc2)c2ccccc2)CC1` [Example 6, 4-Diphenylmethyl-1-[(2-oxopropyl)imino]methyl piperidine Hydrochloride (1:1) Hydrate (10:1)], the ED50 stood at 6.07 mg/kg.
